Measurements reported in patent US4933336A, “Thiadiazinone, oxadiazinone and triazinone derivatives, and their use for treating acute or chronic heart disease” (Laboratoires Sobio S.A., priority 1987, dated 1990).
Like-named read-outs stand apart in the source and are kept apart here.

Legend:
[1] = test system: Canine cardiac myofibrillar Ca++-dependent Mg++ ATPase; assay: Measurement of myofibrillar Ca++-dependent Mg++ATPase activity (Ca++ sensitivity and maximal activity); format: biochemical, canine (dog); details: pH 7.0, 21° C.
Protocol: 1. Measurement of myofibrillar Ca++-dependent Mg++ATPase activity
the effect on myofibrillar Ca++sensitivity and on maximal activity of myofibrillar Ca++-dependent Mg++-ATPase was determined on canine cardiac myofibrils.
(a) Contractile protein preparation
Cardiac myofibrils free of membrane contaminants were prepared from left ventricular tissue of dog hearts using a modification of the method described by SOLARO et al, Biochem. Biophys. Acta, 245, 259-262, (1971). Before centrifugration, the heart homogenate was filtered through gauze.
After Triton X-100 treatments, the myofibrillar fraction was washed once by resuspension and centrifugation in 10 volumes of 1 mM EGTA, […], 30 mM imidazole, 2 mM MgCl2, pH 7.0. The pellet was then washed three times in 10 volumes of the same buffer without EGTA. Before the last centrifugation, the suspension of myofibrils was filtered through a stainless steel sieve with 0.25 mm meshes.
Myofibrils were kept in pellet overnight. Before use, the pellet was suspended in a small amount of buffer, the protein concentration was determined by the method of BRADFORD M., Anal. Biochem., 1976, 72, 248 and adjusted in order to have a concentration between 6 and 7 mg/ml.
(b) Myofibrillar ATPase activity
Ca++-dependent myfibrillar ATPase activity was determined at 21° C., pH 7.0, by measuring the rate of release of inorganic phosphate. All assays were performed within 24 hrs. of final purification, using the method described by SOLARO and RUEGG, CIRC. RES., 51, 290-4, (1982). Reaction mixtures (4 ml) containing 0.6-0.7 mg/ml myofibrillar protein, 80 mM KCl, 20 mM imidazole, 3 mM […], 1 mM EGTA, the desired amount of CaCl2, and the indicated concentration of drug or appropriate vehicle were preincubated for 6 min. prior to assay. The amount of CaCl2 was varied between 0 and 0.9 mM and the pCA (-log free Ca++) computed using 2.514×10^6 M^-1 as the apparent affinity of Ca++for EGTA at pH 7.0.
Reactions were initiated by the addition of Na2 ATP to final concentration of 2 mM. After an incubation period of 12 min., reactions were quenched by the addition of an equal volume of ice-cold 10% trichloroacetic acid. The protein was pelleted by centrifugation (2000 g, 15 min.) and Pi was assayed in the supernatant fraction using a modification of the method described by LANZETTA et al, Anal. Biochem., 100, 95-97, (1979).
The following solutions were prepared:
(1) 3.7% ammonium heptamolybdate in 0.12N H2 SO4
(2) 0.074% malachite green oxalate in 1% polyvinylic alcohol.
the colour reagent was prepared by mixing an equal volume of solution (1) and (2) 15 min. before the assay. For the assay, 1700 μl of 1% H2 SO4 and 1 ml of colour reagent were added to 100 μl of sample. Colour development occurred at room temperature for 30 min. and was quenched by the addition of 200 μl of 1M tri-potassium citrate. The absorbance was measured at 620 millimicrons.
The effect of each compound, tested at the indicated concentration, on the relation between pCa and percent activation was determined taking 100% for the maximum ATPase activity obtained with vehicle alone. The effect on Ca++ sensitivity was quantified by measuring the shift of the pCa giving 50% of the maximal control ATPase activity.
The effect on maximal ATPase activity was expressed as the percent change of ATPase activity for pCa=5.47.

[2] = test system: conscious instrumented Dog; assay: Cardiotonic activity in the conscious instrumented Dog; format: in vivo, dog (male Beagle); details: Canis lupus familiaris, po; for change in vivo at 0.3 mg/kg: 0.30 mg/kg p.o.; for change in vivo at 0.03 mg/kg: 0.03 mg/kg p.o.; for change in vivo at 0.1 mg/kg: 0.10 mg/kg p.o.; for change in vivo at 0.01 mg/kg: 0.01 mg/kg p.o.; for change in vivo at 10 mg/kg: 10.00 mg/kg p.o.
Protocol: Cardiotonic activity in the conscious instrumented Dog
Male Beagle dogs, at least 2 years old, weighing 12 to 18 kg were anaesthetised with pentobarbital sodium (30 mg/kg i.v.). Respiration was maintained by a Harward pump, model 613a. The heart was exposed through a left thoracotomy and a pericardial cardle was formed. A high fidelity micromanometer (Koenigsberg P5 -P7) was inserted into left venitricular lumen through a stab incision at the apex. Wires were exteriorised to the back of the animals, placed into a size adapted jacket, and the chest closed. The experiments were conducted on the conscious dogs, 1 or 2 weeks after the surgery, when the animals had completely recovered.
Measured parameters were : first derivative of left ventricular pressure, (dP/dt, mmHg/sec); heart rate (HR, beats/min.). A control period recording of 90 min. was made with the dogs placed in a quiet room, the recordings being made outside. Compounds to be tested were administered orally in gelatin capsules and the parameters measured for 5 hrs. at least.
Results were expressed as the percentage of the maximum±SEM.

[3] = read-out: H.R. (heart rate), percentage of the maximum ± SEM
[4] = read-out: dP/dt Max (first derivative of left ventricular pressure), percentage of the maximum ± SEM

SMILES: CC1C(=O)Nc2ccc(C3=NNC(=O)SC3)cc21 (stereo not shown) [Example 4, 1,3-Dihydro-5-(3,6-dihydro-2-oxo-2H-1,3,4-thiadiazin-5-yl)-3-methyl-2H-indol-2-one]
- Max ATPase activity (%) (percent change of ATPase activity for pCa=5.47) ([1]; 20 × 10^-5 molar): -6 ± 2%
- Ca2+ sensitivity p CA50 (shift of the pCa giving 50% of the maximal control ATPase activity) ([1]; 20 × 10^-5 molar): 0.15 ± 0.03

SMILES: CC1SC(=O)NN=C1c1ccc2c(c1)C(C)(C)C(=O)N2C (stereo not shown) [Example 18, 1,3-Dihydro-5-(3,6-dihydro-6-methyl-2-oxo-2H-1,3,4-thiadiazin-5-yl)-1,3,3-trimethyl-2H-indol-2-one]
- change in vivo at 0.3 mg/kg [2, 3]: 28%
- change in vivo at 0.3 mg/kg [2, 4]: 74%
- Max ATPase activity (%) (percent change of ATPase activity for pCa=5.47) ([1]; 3 × 10^-5 molar): +3 ± 3%
- Ca2+ sensitivity p CA50 (shift of the pCa giving 50% of the maximal control ATPase activity) ([1]; 3 × 10^-5 molar): 0.19 ± 0.03

SMILES: CSC1(C)C(=O)Nc2ccc(C3=NNC(=O)SC3C)cc21 (stereo not shown) [Example 5, 1,3-Dihydro-5-(3,6-dihydro-6-methyl-2-oxo-2H-1,3,4-thiadiazin-5-yl)-3-methyl-3-methylthio-2H-indol-2-one]
- change in vivo at 0.03 mg/kg [2, 3]: 16%
- change in vivo at 0.03 mg/kg [2, 4]: 45%
- Max ATPase activity (%) (percent change of ATPase activity for pCa=5.47) ([1]; 20 × 10^-5 molar): -8 ± 1%
- Ca2+ sensitivity p CA50 (shift of the pCa giving 50% of the maximal control ATPase activity) ([1]; 20 × 10^-5 molar): 0.40 ± 0.08

SMILES: CC1SC(=O)NN=C1c1ccc2c(c1)CC(C)(C)C(=O)N2 (stereo not shown) [Example 36, 3,4-Dihydro-6-(3,6-dihydro-6-methyl-2-oxo-2H-1,3,4-thiadiazin-5-yl)-3,3-dimethyl-2(1H)-quinolinone]
- change in vivo at 0.1 mg/kg [2, 3]: 7%
- change in vivo at 0.1 mg/kg [2, 4]: 46%
- Max ATPase activity (%) (percent change of ATPase activity for pCa=5.47) ([1]; 3 × 10^-5 molar): -4 ± 3%
- Ca2+ sensitivity p CA50 (shift of the pCa giving 50% of the maximal control ATPase activity) ([1]; 3 × 10^-5 molar): 0.33 ± 0.07

SMILES: CC(=O)N1C(=O)C(C)(C)c2cc(C3=NNC(=O)SC3C)ccc21 (stereo not shown) [Example 7, 1-Acetyl-1,3-dihydro-5-(3,6-dihydro-6-methyl-2-oxo-H-1,3,4-thiadiazin-5-yl)3,3-dimethyl-2H-indol-2-one]
- change in vivo at 0.01 mg/kg [2, 3]: 9%
- change in vivo at 0.01 mg/kg [2, 4]: 41%
- Max ATPase activity (%) (percent change of ATPase activity for pCa=5.47) ([1]; 20 × 10^-5 molar): -2 ± 3%
- Ca2+ sensitivity p CA50 (shift of the pCa giving 50% of the maximal control ATPase activity) ([1]; 20 × 10^-5 molar): 0.37 ± 0.06

SMILES: CC1SC(=O)NN=C1c1ccc2c(c1)C1(CCCC1)C(=O)N2 (stereo not shown) [Example 6, 5'-(3,6-Dihydro-6-methyl-2-oxo-2H-1,3,4-thiadiazin-5-yl)-spiro[cyclopentane-1,3'-[3H]-indol]-2'(1'H)one]
- change in vivo at 0.3 mg/kg [2, 3]: 7%
- change in vivo at 0.3 mg/kg [2, 4]: 33%

SMILES: CC1SC(=O)NN=C1c1ccc2c(c1)C1(CC1)C(=O)N2 (stereo not shown) [Example 16, 5'-(3,6-Dihydro-6-methyl-2-oxo-2H-1,3,4 thiadiazin-5-yl) -spiro[cyclopropane-1,3'-[3H]indol]-2'-(1'H)-one]
- change in vivo at 0.03 mg/kg [2, 3]: 21%
- change in vivo at 0.03 mg/kg [2, 4]: 105%

SMILES: CC1(C)C(=O)Nc2ccc(C3=NNC(=O)SC3)cc21 [Example 2, 1,3-Dihydro-5-(3,6-dihydro-2-oxo-2H-1,3,4-thiadiazin-5-yl)-3,3,-dimethyl-2H-indol-2-one]
- Max ATPase activity (%) (percent change of ATPase activity for pCa=5.47) ([1]; 20 × 10^-5 molar): -9 ± 2%
- Ca2+ sensitivity p CA50 (shift of the pCa giving 50% of the maximal control ATPase activity) ([1]; 20 × 10^-5 molar): 0.16 ± 0.07

SMILES: CSC1C(=O)Nc2ccc(C3=NNC(=O)SC3C)cc21 (stereo not shown) [Example 10, 1,3-Dihydro-5-(3,6-dihydro-6-methyl-2-oxo-2H-1,3,4-thiadiazin-5-yl)-3-methylthio-2H-indol-2-one]
- Max ATPase activity (%) (percent change of ATPase activity for pCa=5.47) ([1]; 3 × 10^-5 molar): -9 ± 5%
- Ca2+ sensitivity p CA50 (shift of the pCa giving 50% of the maximal control ATPase activity) ([1]; 3 × 10^-5 molar): 0.36 ± 0.02

SMILES: CSC1(SC)C(=O)Nc2ccc(C3=NNC(=O)SC3C)cc21 (stereo not shown) [Example 15, 1,3-Dihydro-5-(3,6-dihydro-6-methyl-2-oxo-2H-1,3,4-thiadiazin-5-yl)-3.3-di(methylthio)-2H-indol-2 one]
- Max ATPase activity (%) (percent change of ATPase activity for pCa=5.47) ([1]; 3 × 10^-5 molar): -4 ± 1%
- Ca2+ sensitivity p CA50 (shift of the pCa giving 50% of the maximal control ATPase activity) ([1]; 3 × 10^-5 molar): 0.37 ± 0.11

SMILES: CSC1(C)C(=O)N(C(C)=O)c2ccc(C3=NNC(=O)SC3)cc21 (stereo not shown) [Example 9, 1-Acetyl-1,3-dihydro-5-(3,6-dihydro-2-oxo-2H-1,3,4-thiadiazin-5-yl)-3-methyl-3-methylthio-2H-indol-2-one]
- change in vivo at 10 mg/kg [2, 3]: 16%
- change in vivo at 10 mg/kg [2, 4]: 68%

SMILES: CC1SC(=O)NN=C1c1ccc2c(c1)C(C)(C)C(=O)N2C(=O)Oc1ccccc1 (stereo not shown) [Example 40, Phenyl 2,3-dihydro-5-(3,6-dihydro-6-methyl-2-oxo-2H-1,3,4-thiadiazin-5-yl)-3,3-dimethyl-2-oxo-1H-indole-1-carboxylate]
- Max ATPase activity (%) (percent change of ATPase activity for pCa=5.47) ([1]; 3 × 10^-5 molar): +2 ± 2%
- Ca2+ sensitivity p CA50 (shift of the pCa giving 50% of the maximal control ATPase activity) ([1]; 3 × 10^-5 molar): 0.15 ± 0.01

SMILES: CC1SC(=O)NN=C1c1ccc2c(c1)C(=O)C(=O)N2 (stereo not shown) [Example 12, 5-(3,6-Dihydro-6-methyl-2-oxo-2H-1,3,4-thiadiazin-5-yl)-1H-indole-2,3-dione]
- change in vivo at 0.3 mg/kg [2, 3]: 10%
- change in vivo at 0.3 mg/kg [2, 4]: 51%

SMILES: CC1SC(=O)NN=C1c1ccc2c(c1)C(C)(C)C(=O)N2C(=O)c1ccc(N)cc1 (stereo not shown) [Example 42, 1,3-Dihydro-5-(3,6-dihydro-6-methyl-2-oxo-2H-1,3,4-thiadiazin-5-yl)-3,3-dimethyl-1-[(4-aminophenyl)carbonyl]-2H-indol-2-one]
- Max ATPase activity (%) (percent change of ATPase activity for pCa=5.47) ([1]; 3 × 10^-5 molar): -9 ± 2%
- Ca2+ sensitivity p CA50 (shift of the pCa giving 50% of the maximal control ATPase activity) ([1]; 3 × 10^-5 molar): 0.17 ± 0.03

SMILES: CC1NC(=O)NN=C1c1ccc2c(c1)C(C)(C)C(=O)N2 (stereo not shown) [Example 37, 1,3-Dihydro-5-(1,2,3,6-tetrahydro-6-methyl-2-oxo-1,3,4-triazin-5-yl)-3,3-dimethyl-2H-indol-2-one]
- change in vivo at 0.03 mg/kg [2, 3]: 24%
- change in vivo at 0.03 mg/kg [2, 4]: 85%

SMILES: CC1SC(=O)NN=C1c1ccc2c(c1)C(C)(C)C(=O)N2C(=O)c1ccccc1 (stereo not shown) [Example 22, 1-Benzoyl-1,3-dihydro-5-(3,6-dihydro-6-methyl-2-oxo-2H-1,3,4-thiadiazin-5-yl)-3,3-dimethyl-2H-indol-2-one]
- change in vivo at 0.03 mg/kg [2, 3]: 14%
- change in vivo at 0.03 mg/kg [2, 4]: 56%
